Reference: patent US4977181A, “Tromethamine salt of 1-methyl-beta-oxo-alpha-(phenylcarbamoyl)-2-pyrrolepropionitrile” (priority 1989, dated 1990)
Structures can show the parent of a compound that is named as a salt.

Legend:
[1] = Acute Toxicity Study (single oral dose, mortality); format: in vivo, rat (Sprague-Dawley); details: rat, in vivo, po, 2400 umol/kg, 2.4 millimoles/Kg p.o., rat, both sexes; read-out: mortality rate
Method: (§1) A single equimolar dose of each compound is administered orally by gavage as a 3% corn starch suspension to 5 female and 5 male Sprague-Dawley rats. The animals are there observed for 15 days.
(§2) The comparative incidence of mortality for the free acid of formula I, the triethanolamine salt thereof and the tromethamine salt of formula II are as follows: […]

[2] = test system: Sprague-Dawley rats; test: Acute Toxicity Study (single oral dose, mortality); format: in vivo, rat (Sprague-Dawley); details: for Mortality, Female / Mortality, Male: single oral gavage, observed for 15 days; for Mortality, Female: female rats; for Mortality, Male: male rats
Method: as §1, §2

[3] = antiinflammatory activity; format: in vivo; details: in words
Method: The compound can be administered to the animals either enterally, preferably orally, parenterally, e.g. subcutaneously or intravenously, or topically, for example, in the form of aqueous solutions or suspensions. The applied dosage may range between about 0.1 and 100 mg/kg/day, preferably between about 1 and 50 mg/kg/day. The tests include the classical in vivo assay methods for said activities, such as the carrageenin paw-edema, adjuvant arthritis tests in rats, and the canine synovitis test.

[4] = tolerability at therapeutically effective doses; format: in vivo
[5] = test system: cell-mediated immunity; test: enhancement of depressed cell-mediated immunity; format: in vivo, rat; details: in words
Method: Immunopotentiating effects can be determined in BCG-immunized animals. In vitro, the enhancement of cell-mediated immunity is determined by measuring the increase in chemotaxis of macrophages isolated from BCG-immunized rats. In vivo, such is determined in the BCG-immunized adjuvant arthritic rat by measuring the effect on delayed hypersensitivity reaction essentially as described in Current Therapeutic Research 30, S34 (1981).

[6] = test system: cartilage matrix; test: inhibition of cartilage matrix degradation; format: cell-based, bovine; details: in words
Method: The effect on cartilage matrix degradation can be determined in the cartilage-synovium co-culture model of matrix degradation which is carried out as follows:
The proteoglycan matrix of bovine nasal septum cartilage is labeled in vitro by incorporation of ^35 S into glycosaminoglycan. Cartilage slices are incubated overnight in a sulfate-free medium containing ^35 S-sodium sulfate. ^35 S-Labeled cartilage slices are co-cultured with normal synovium explants in multiwell tissue culture plates. After 4 days incubation a 100 μl aliquot of medium is counted. Cartilage slices are hydrolyzed and a 100 μl aliquot of cartilage hydrolysate is counted. The percent ^35 S released into the medium is determined and the percent of inhibition of matrix degradation is calculated.

[7] = 2.4 Millimoles/Kg, listed as II
[8] = 3.6 Millimoles/Kg, listed as II

## Cn1cccc1C(=O)C(C#N)C(=O)Nc1ccccc1 (stereo not drawn) [triethanolamine salt, triethanolamine salt of 1-methyl-beta-oxo-alpha-(phenylcarbamoyl)-2-propionitrile]
[1]
  mortality at 360 h: 50%
[2]; 2.4 Millimoles/Kg
  Mortality, Female: 3/5
  Mortality, Male: 2/5
[2]; 3.6 Millimoles/Kg
  Mortality, Female: 5/5
  Mortality, Male: 5/5

## Cn1cccc1C(=O)C(C#N)C(=O)Nc1ccccc1 (stereo not drawn) [formula II, 1-methyl-beta-oxo-alpha-(phenylcarbamoyl)-2-pyrrolepropionitrile (1:1) tromethamine salt]
[2]; [7]
  Mortality, Female: 0/5
  Mortality, Male: 0/5
[2]; 2.4 millimoles/Kg p.o., rat, both sexes
  deaths (animals): 0/10
[2]; [8]
  Mortality, Female: 5/5
  Mortality, Male: 5/5
[2]; rat, in words
  acute toxicity compared with free acid of formula I or the triethanolamine salt: less toxic than the free acid of formula I or the triethanolamine salt thereof
[3]
  antiinflammatory activity: displays antiinflammatory
[4]
  tolerability: well tolerated
  undesirable side effects: essentially free of undesirable side effects
[5]
  enhancement of depressed cell-mediated immunity: enhancement of depressed cell-mediated immunity
[6]
  inhibition of cartilage matrix degradation: inhibition of cartilage matrix degradation

## Cn1cccc1C(=O)C(C#N)C(=O)Nc1ccccc1 (stereo not drawn) [formula I, 1-methyl-beta-oxo-alpha-phenylcarbamoyl-2-pyrrolepropionitrile]
[2]; 1.2 Millimoles/Kg
  Mortality, Female: 0/5
  Mortality, Male: 0/5
[2]; 2.4 Millimoles/Kg, listed as I
  Mortality, Female: 2/5
  Mortality, Male: 2/5
[2]; 2.4 millimoles/Kg p.o., rat, both sexes, 21600 min
  mortality rate: 40%
[2]; 3.6 Millimoles/Kg, listed as I
  Mortality, Female: 4/5
  Mortality, Male: 4/5
